Columns and labels:
Type in all cases: cell-based
Pseudomonas aeruginosa = test: Minimum inhibitory concentration and synergistic index (Kull); conditions: for QA: amount of DBDCB used on its own that suppresses growth
From the text: (§1) [formula] • where: • Qa=the amount of component A in the active substance mixture which achieves the desired effect, i.e. no microbial growth, • QA=the amount of component A which, when used on its own, suppresses the growth of the microorganisms, • Qb=the amount of component B in the active substance mixture which achieves the desired effect, i.e. no microbial growth, • and • QB=the amount of component B which, when used on its own, suppresses the growth of the microorganisms.
(§2) A synergistic index obtained according to the above formula of SI<1 indicates a synergistic effect for the active substance mixture.
(§3) Using various test pathogens, the minimum inhibitory concentration was determined and, on the basis thereof with the aid of the formula by F. C. Kull et al., the synergistic effects of the listed compositions according to the invention were calculated.

Alternaria alternata = test: as above; conditions: for QA: amount of DBDCB used on its own that suppresses growth
From the text: as §1, §2, §3

Aspergillus brasiliensis = test: as above; conditions: Table 9
From the text: as §1, §2, §3

Bacillus subtilis = test: as above; conditions: Table 8
From the text: as §1, §2, §3

Geotrichum candidum = test: as above; conditions: Table 3
From the text: as §1, §2, §3

Staphylococcus aureus = test: as above; conditions: Table 1
From the text: as §1, §2, §3

[1] = test system: Molds: Acremonium strictum, Aspergillus niger and Geotrichum candidum; test: Microbiological load test, preservation of a dishwashing liquid: molds; conditions: M = molds, 1 week after pathogen addition, biocide added [wt %]: A DBDCB 0.05, B salicylic acid 0.02, C DBDCB 0.02 and salicylic acid 0.016
From the text: (§4) The preserving effect of an inventive composition comprising DBDCB and Salix alba extract in a dishwashing liquid was investigated using a microbiological load test. The microbiological load test examines the susceptibility of water-based products to microbial attack and the effect of preservatives. To this end, the preservatives are incorporated in defined concentrations into the water-based systems. […] With knowledge of the microorganism populations prevalent in detergents of the type described here, the experiment employed a mixture of the following microorganism species for testing: Molds: Acremonium strictum, Aspergillus niger and Geotrichum candidum. […] The activity is deemed poor when, compared to the unpreserved sample, no reduction or only a minor reduction of the microbe level is observed (residual level of at least 10^5 bacteria/10^4 mold cells/yeast cells per g) (score of 0=poor). The following compositions were used in the experiments depicted in table 10: • A: DBDCB • B: […]

[2] = test system: Yeasts: Candida albicans and Rhodotorula rubra; test: Microbiological load test, preservation of a dishwashing liquid: yeasts; conditions: Y = yeasts, 1 week after pathogen addition, biocide added [wt %]: A DBDCB 0.05, B salicylic acid 0.02, C DBDCB 0.02 and salicylic acid 0.016
From the text: as §4, with “Yeasts: Candida albicans” for “Molds: Acremonium strictum, Aspergillus niger”, “Rhodotorula rubra.” for “Geotrichum candidum.”

[3] = test system: Bacteria: Escherichia coil, Pseudomonas aeruginosa, Staphylococcus aureus, Pseudomonas putida, Enterobacter gergoviae; test: Microbiological load test, preservation of a dishwashing liquid: bacteria; conditions: B = bacteria, 1 week after pathogen addition, biocide added [wt %]: A DBDCB 0.05, B salicylic acid 0.02, C DBDCB 0.02 and salicylic acid 0.016
From the text: as §4, with “Bacteria: Escherichia coil, Pseudomonas aeruginosa, Staphylococcus aureus, Pseudomonas putida, Enterobacter gergoviae” for “Molds: Acremonium strictum, Aspergillus niger and Geotrichum candidum.”

[4] = amount of DBDCB used on its own that suppresses growth
[5] = amount of benzoic acid used on its own that suppresses growth
[6] = amount of citric acid used on its own that suppresses growth

Structure (SMILES): CC(O)C(=O)O (stereo not drawn) [lactic acid]
- QB (Pseudomonas aeruginosa; amount of lactic acid used on its own that suppresses growth, Table 4): 3001 ppm
- QB (Alternaria alternata; amount of lactic acid used on its own that suppresses growth, Table 5): 3001 ppm

Structure (SMILES): N#CCCC(Br)(C#N)CBr (stereo not drawn) [DBDCB, 1,2-dibromo-2,4-dicyanobutane]
- QA (Pseudomonas aeruginosa; Table 4): 500 ppm
- QA (Pseudomonas aeruginosa; Table 6): 250 ppm
- QA (Aspergillus brasiliensis; [4]): 250 ppm
- QA (Bacillus subtilis; [4]): 25 ppm
- QA (Geotrichum candidum; [4]): 100 ppm
- QA (Alternaria alternata; Table 2): 25 ppm
- QA (Alternaria alternata; Table 5): 25 ppm
- QA (Alternaria alternata; Table 7): 25 ppm
- QA (Staphylococcus aureus; [4]): 50 ppm
- Activity of the biocides in a dishwashing liquid, molds, Week 1 ([1]; week 1): 3 (3 = very good activity)
- Activity of the biocides in a dishwashing liquid, molds, Week 2 ([1]; week 2): 3 (3 = very good activity)
- Activity of the biocides in a dishwashing liquid, molds, Week 3 ([1]; week 3): 0 (0 = poor activity)
- Activity of the biocides in a dishwashing liquid, molds, Week 4 ([1]; week 4): 0 (0 = poor activity)
- Activity of the biocides in a dishwashing liquid, molds, Week 5 ([1]; week 5): 0 (0 = poor activity)
- Activity of the biocides in a dishwashing liquid, molds, Week 6 ([1]; week 6): 0 (0 = poor activity)
- Activity of the biocides in a dishwashing liquid, yeasts, Week 1 ([2]; week 1): 3 (3 = very good activity)
- Activity of the biocides in a dishwashing liquid, yeasts, Week 2 ([2]; week 2): 3 (3 = very good activity)
- Activity of the biocides in a dishwashing liquid, yeasts, Week 3 ([2]; week 3): 0 (0 = poor activity)
- Activity of the biocides in a dishwashing liquid, yeasts, Week 4 ([2]; week 4): 0 (0 = poor activity)
- Activity of the biocides in a dishwashing liquid, yeasts, Week 5 ([2]; week 5): 0 (0 = poor activity)
- Activity of the biocides in a dishwashing liquid, yeasts, Week 6 ([2]; week 6): 0 (0 = poor activity)
- Activity of the biocides in a dishwashing liquid, bacteria, Week 1 ([3]; week 1): 1 (1 = fair activity)
- Activity of the biocides in a dishwashing liquid, bacteria, Week 2 ([3]; week 2): 0 (0 = poor activity)
- Activity of the biocides in a dishwashing liquid, bacteria, Week 3 ([3]; week 3): 0 (0 = poor activity)
- Activity of the biocides in a dishwashing liquid, bacteria, Week 4 ([3]; week 4): 0 (0 = poor activity)
- Activity of the biocides in a dishwashing liquid, bacteria, Week 5 ([3]; week 5): 0 (0 = poor activity)
- Activity of the biocides in a dishwashing liquid, bacteria, Week 6 ([3]; week 6): 0 (0 = poor activity)

Structure (SMILES): O=C(O)c1ccccc1 [benzoic acid]
- QB (Aspergillus brasiliensis; [5]): 1000 ppm
- QB (Bacillus subtilis; [5]): 3000 ppm

Structure (SMILES): O=C(O)c1ccccc1O [salicylic acid]
- QB (Pseudomonas aeruginosa; amount of salicylic acid used on its own that suppresses growth, Table 6): 3001 ppm
- QB (Alternaria alternata; amount of salicylic acid used on its own that suppresses growth, Table 7): 500 ppm

Structure (SMILES): O=C(O)CC(O)(CC(=O)O)C(=O)O [citric acid]
- QB (Geotrichum candidum; [6]): 3001 ppm
- QB (Alternaria alternata; amount of citric acid used on its own that suppresses growth, Table 2): 3001 ppm
- QB (Staphylococcus aureus; [6]): 3001 ppm
